The term MIC denotes the lowest concentration found to suppress growth. A high value points to weaker potency.

This note sets out measurements from patent US4416817A, “3-Methoxy-2-oxoazetidine derivatives and their production” (Takeda Chemical Industries, Ltd., priority 1979, dated 1983).

Holding throughout (experiment): Antimicrobial spectrum, minimum inhibitory concentration
Holding throughout (type): cell-based

Test [1] concerns Proteus vulgaris IFO 3988. Particulars: IFO3988, medium TSA. From the text: (§1) TSA = Trypticase soy agar [Baltimore Biologicals
(§2) BTSA = Blood trypticase soy agar

Test [2] relates to Staphylococcus aureus FDA209P. The following applies: medium TSA (Trypticase soy agar).
Source text: as §1, §2

A further test concerns Candida albicans TA. Particulars: medium TSA.
Source text: as §1, §2

The test system of test [3] is Enterobacter cloacae IFO 12937. The following applies: IFO12937, medium TSA.
Source text: as §1, §2

In another test the test system is Klebsiella pneumoniae DT. Particulars: medium TSA.
Source text: as §1, §2

The test system of test [4] is Escherichia coli NIHJ JC-2. Particulars: NIHJJC2, medium TSA.
Source text: as §1, §2

Test [5] relates to Proteus mirabilis IFO 3849. Particulars: IFO3849, medium TSA.
Source text: as §1, §2

A further test deals with Escherichia coli O-111. Particulars: O111, medium TSA.
Source text: as §1, §2

In test [6] the test system is Streptococcus pyogenes S-8. Particulars: S8, medium B-TSA.
Source text: as §1, §2

Test [7] relates to Serratia marcescens IFO 12648. Particulars: IFO12648, medium TSA.
Source text: as §1, §2

Test [8] has as its system Streptococcus pyogenes E-14. The following applies: E14, medium B-TSA (Blood trypticase soy agar).
Source text: as §1, §2

Test [9] concerns Pseudomonas aeruginosa U 31. The following applies: U31, medium TSA.
Source text: as §1, §2

The test system of test [10] is Pseudomonas morganii IFO 3168. Particulars: IFO3168, medium TSA.
Source text: as §1, §2

The test system of test [11] is Corynebacterium diphtheriae Toronto. Particulars: medium B-TSA.
Source text: as §1, §2

SMILES strings stand for the structures.

For the molecule `CCN1CCN(C(=O)N[C@@H](C(=O)NC2(OC)CN(S(=O)(=O)O)C2=O)c2ccccc2)C(=O)C1=O` (single isomer, unassigned) [Compound, sodium 3-[D(-)-2-(4-ethyl-2,3-dioxo-1-piperazinocarboxamido)phenylacetamido]-3-methoxy-2-oxoazetidine-1-sulfonate], the MIC in test [1] is 12.5 µg/mL; in [2] it was 100 µg/mL; in the test on Candida albicans TA, over 100 µg/mL; in test [3] it was over 100 µg/mL; with Klebsiella pneumoniae DT, 12.5 µg/mL; in test [4], 50 µg/mL. Besides, the MIC is 50 µg/mL in test [5]; 12.5 µg/mL in the test with Escherichia coli O-111; 50 µg/mL in [6]; 50 µg/mL in test [7]; 50 µg/mL in test [8]; over 100 µg/mL in test [9]. The MIC was over 100 µg/mL in test [10] and 50 µg/mL in [11].
